How the values were obtained:
Type in all cases: in vivo
[1] = tested on: barnyardgrass (Echinochloa crus-galli); test: Test C flooded paddy test: barnyardgrass; conditions: scale 0 to 100 (0 no effect, 100 complete control)
Method in brief: (§1)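 Plants at 2-leaf stage in pots flooded 3 cm above soil; compounds applied directly into the paddy water, depth maintained. Visual rating against controls after 13–15 days in greenhouse, scale 0 (no effect) to 100 (complete control).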

[2] = tested on: velvetleaf (Abutilon theophrasti); test: Test A pre-/postemergence: velvetleaf; conditions: for Velvetleaf plant response rating: Postemergence; for Plant response rating, Velvetleaf: Preemergence
Method in brief: (§2)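 Rating scale 0–100 (100 = complete control), visual, ~10 days after application in the greenhouse. Applications: preemergence directed soil spray; postemergence at 1–2 leaves.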

[3] = tested on: crabgrass, large (large crabgrass, Digitaria sanguinalis); test: Test A pre-/postemergence: crabgrass, large; conditions: for Crabgrass, Large plant response rating: Postemergence; for Plant response rating, Crabgrass, Large: Preemergence
Method in brief: as §2

[4] = tested on: ducksalad (Heteranthera limosa); test: Test C flooded paddy test: ducksalad; conditions: scale 0 to 100 (0 no effect, 100 complete control)
Method in brief: as §1

[5] = tested on: foxtail, giant (giant foxtail, Setaria faberii); test: Test A pre-/postemergence: foxtail, giant; conditions: for Foxtail, Giant plant response rating: Postemergence; for Plant response rating, Foxtail, Giant: Preemergence
Method in brief: as §2

[6] = tested on: wheat (Triticum aestivum); test: Test A pre-/postemergence: wheat; conditions: for Wheat plant response rating: Postemergence; for Plant response rating, Wheat: Preemergence
Method in brief: as §2

[7] = tested on: pigweed (Amaranthus retroflexus); test: Test A pre-/postemergence: pigweed; conditions: for Pigweed plant response rating: Postemergence; for Plant response rating, Pigweed: Preemergence
Method in brief: as §2

rice (Oryza sativa) = test: Test C flooded paddy test: rice; conditions: scale 0 to 100 (0 no effect, 100 complete control)
Method in brief: as §1

[8] = tested on: sedge, umbrella (small-flower umbrella sedge, Cyperus difformis); test: Test C flooded paddy test: sedge, umbrella; conditions: scale 0 to 100 (0 no effect, 100 complete control)
Method in brief: as §1

[9] = tested on: morningglory (Ipomoea spp.); test: Test A pre-/postemergence: morningglory; conditions: for Morningglory plant response rating: Postemergence; for Plant response rating, Morningglory: Preemergence
Method in brief: as §2

corn (Zea mays) = test: Test A pre-/postemergence: corn; conditions: for Corn plant response rating: Postemergence; for Plant response rating, Corn: Preemergence
Method in brief: as §2

[10] = tested on: barnyardgrass (Echinochloa crus-galli); test: Test A pre-/postemergence: barnyardgrass; conditions: for Barnyardgrass plant response rating: Postemergence; for Plant response rating, Barnyardgrass: Preemergence
Method in brief: as §2

[11] = Flood (flooded paddy test), 125 g ai/ha, visual rating after 13 to 15 days
[12] = Flood (flooded paddy test), 250 g ai/ha, visual rating after 13 to 15 days
[13] = 125 g ai/ha, 0 to 100 scale, 0 is no effect, 100 is complete control
[14] = 500 g ai/ha, visual rating on 0 to 100 scale (0 no effect, 100 complete control), approximately ten days
[15] = 125 g ai/ha, 0 to 100 scale (0 no effect, 100 complete control)
[16] = 500 g ai/ha, 0 to 100 scale, 0 is no effect, 100 is complete control

SMILES: COc1nn(-c2ccc(C(F)(F)F)cc2)nc1C(C)(O)c1ccnc(C(F)(F)F)c1 (stereo not drawn) [Compound 79]
- Plant response rating, Barnyardgrass [1, 11]: 0
- Plant response rating, Barnyardgrass [1, 12]: 0
- Plant response rating, Barnyardgrass ([1]; Flood, 31 g ai/ha): 0
- Plant response rating, Barnyardgrass ([1]; Flood, 62 g ai/ha): 0
- Velvetleaf plant response rating [2, 13]: 0
- Velvetleaf plant response rating [2, 14]: 0
- Plant response rating, Velvetleaf [2, 15]: 0
- Plant response rating, Velvetleaf [2, 16]: 0
- Crabgrass, Large plant response rating [3, 13]: 0
- Crabgrass, Large plant response rating [3, 14]: 0
- Plant response rating, Crabgrass, Large [3, 15]: 0
- Plant response rating, Crabgrass, Large [3, 16]: 0
- Plant response rating, Ducksalad [4, 11]: 0
- Plant response rating, Ducksalad [4, 12]: 0
- Plant response rating, Ducksalad ([4]; Flood, 31 g ai/ha): 0
- Plant response rating, Ducksalad ([4]; Flood, 62 g ai/ha): 0
- Foxtail, Giant plant response rating [5, 13]: 0
- Foxtail, Giant plant response rating [5, 14]: 10
- Plant response rating, Foxtail, Giant [5, 15]: 0
- Plant response rating, Foxtail, Giant [5, 16]: 0
- Wheat plant response rating [6, 13]: 0
- Wheat plant response rating [6, 14]: 0
- Plant response rating, Wheat [6, 15]: 0
- Plant response rating, Wheat [6, 16]: 0
- Pigweed plant response rating [7, 13]: 0
- Pigweed plant response rating [7, 14]: 0
- Plant response rating, Pigweed [7, 15]: 0
- Plant response rating, Pigweed [7, 16]: 0
- Plant response rating, Rice (rice (Oryza sativa); [11]): 0
- Plant response rating, Rice (rice (Oryza sativa); [12]): 0
- Plant response rating, Rice (rice (Oryza sativa); Flood, 31 g ai/ha): 0
- Plant response rating, Rice (rice (Oryza sativa); Flood, 62 g ai/ha): 0
- Plant response rating, Sedge, Umbrella [8, 11]: 0
- Plant response rating, Sedge, Umbrella [8, 12]: 0
- Plant response rating, Sedge, Umbrella ([8]; Flood, 31 g ai/ha): 0
- Plant response rating, Sedge, Umbrella ([8]; Flood, 62 g ai/ha): 0
- Morningglory plant response rating [9, 13]: 0
- Morningglory plant response rating [9, 14]: 0
- Plant response rating, Morningglory [9, 15]: 0
- Plant response rating, Morningglory [9, 16]: 0
- Corn plant response rating (corn (Zea mays); [13]): 0
- Corn plant response rating (corn (Zea mays); [14]): 0
- Plant response rating, Corn (corn (Zea mays); [15]): 0
- Plant response rating, Corn (corn (Zea mays); [16]): 0
- Barnyardgrass plant response rating [10, 13]: 0
- Barnyardgrass plant response rating [10, 14]: 0
- Plant response rating, Barnyardgrass [10, 15]: 0
- Plant response rating, Barnyardgrass [10, 16]: 0

SMILES: COc1nn(-c2ccc(C(F)(F)F)cc2)nc1C(F)c1ccnc(C(F)(F)F)c1 (stereo not drawn) [Compound 80]
- Plant response rating, Barnyardgrass [1, 11]: 0
- Plant response rating, Barnyardgrass [1, 12]: 20
- Plant response rating, Barnyardgrass ([1]; Flood, 31 g ai/ha): 0
- Plant response rating, Barnyardgrass ([1]; Flood, 62 g ai/ha): 0
- Velvetleaf plant response rating [2, 13]: 80
- Velvetleaf plant response rating [2, 14]: 100
- Plant response rating, Velvetleaf [2, 15]: 30
- Plant response rating, Velvetleaf [2, 16]: 70
- Crabgrass, Large plant response rating [3, 13]: 40
- Crabgrass, Large plant response rating [3, 14]: 80
- Plant response rating, Crabgrass, Large [3, 15]: 90
- Plant response rating, Crabgrass, Large [3, 16]: 100
- Plant response rating, Ducksalad [4, 11]: 0
- Plant response rating, Ducksalad [4, 12]: 0
- Plant response rating, Ducksalad ([4]; Flood, 31 g ai/ha): 0
- Plant response rating, Ducksalad ([4]; Flood, 62 g ai/ha): 0
- Foxtail, Giant plant response rating [5, 13]: 30
- Foxtail, Giant plant response rating [5, 14]: 80
- Plant response rating, Foxtail, Giant [5, 15]: 90
- Plant response rating, Foxtail, Giant [5, 16]: 100
- Wheat plant response rating [6, 13]: 20
- Wheat plant response rating [6, 14]: 40
- Plant response rating, Wheat [6, 15]: 0
- Plant response rating, Wheat [6, 16]: 40
- Pigweed plant response rating [7, 13]: 100
- Pigweed plant response rating [7, 14]: 100
- Plant response rating, Pigweed [7, 15]: 100
- Plant response rating, Pigweed [7, 16]: 100
- Plant response rating, Rice (rice (Oryza sativa); [11]): 0
- Plant response rating, Rice (rice (Oryza sativa); [12]): 0
- Plant response rating, Rice (rice (Oryza sativa); Flood, 31 g ai/ha): 0
- Plant response rating, Rice (rice (Oryza sativa); Flood, 62 g ai/ha): 0
- Plant response rating, Sedge, Umbrella [8, 11]: 0
- Plant response rating, Sedge, Umbrella [8, 12]: 70
- Plant response rating, Sedge, Umbrella ([8]; Flood, 31 g ai/ha): 0
- Plant response rating, Sedge, Umbrella ([8]; Flood, 62 g ai/ha): 0
- Morningglory plant response rating [9, 13]: 40
- Morningglory plant response rating [9, 14]: 90
- Plant response rating, Morningglory [9, 15]: 0
- Plant response rating, Morningglory [9, 16]: 60
- Corn plant response rating (corn (Zea mays); [13]): 20
- Corn plant response rating (corn (Zea mays); [14]): 20
- Plant response rating, Corn (corn (Zea mays); [15]): 0
- Plant response rating, Corn (corn (Zea mays); [16]): 10
- Barnyardgrass plant response rating [10, 13]: 30
- Barnyardgrass plant response rating [10, 14]: 70
- Plant response rating, Barnyardgrass [10, 15]: 20
- Plant response rating, Barnyardgrass [10, 16]: 70

SMILES: Cc1nn(-c2ccc(C(F)(F)F)cc2)nc1Oc1cccc(Cl)c1 [Compound 84]
- Plant response rating, Barnyardgrass [1, 11]: 0
- Plant response rating, Barnyardgrass [1, 12]: 10
- Plant response rating, Barnyardgrass ([1]; Flood, 31 g ai/ha): 0
- Plant response rating, Barnyardgrass ([1]; Flood, 62 g ai/ha): 0
- Velvetleaf plant response rating [2, 13]: 10
- Velvetleaf plant response rating [2, 14]: 20
- Plant response rating, Velvetleaf [2, 15]: 0
- Plant response rating, Velvetleaf [2, 16]: 0
- Crabgrass, Large plant response rating [3, 13]: 10
- Crabgrass, Large plant response rating [3, 14]: 50
- Plant response rating, Crabgrass, Large [3, 15]: 0
- Plant response rating, Crabgrass, Large [3, 16]: 60
- Plant response rating, Ducksalad [4, 11]: 0
- Plant response rating, Ducksalad [4, 12]: 40
- Plant response rating, Ducksalad ([4]; Flood, 31 g ai/ha): 0
- Plant response rating, Ducksalad ([4]; Flood, 62 g ai/ha): 0
- Foxtail, Giant plant response rating [5, 13]: 10
- Foxtail, Giant plant response rating [5, 14]: 20
- Plant response rating, Foxtail, Giant [5, 15]: 0
- Plant response rating, Foxtail, Giant [5, 16]: 30
- Wheat plant response rating [6, 13]: 0
- Wheat plant response rating [6, 14]: 0
- Plant response rating, Wheat [6, 15]: 0
- Plant response rating, Wheat [6, 16]: 0
- Pigweed plant response rating [7, 13]: 40
- Pigweed plant response rating [7, 14]: 90
- Plant response rating, Pigweed [7, 15]: 0
- Plant response rating, Pigweed [7, 16]: 50
- Plant response rating, Rice (rice (Oryza sativa); [11]): 20
- Plant response rating, Rice (rice (Oryza sativa); [12]): 20
- Plant response rating, Rice (rice (Oryza sativa); Flood, 31 g ai/ha): 0
- Plant response rating, Rice (rice (Oryza sativa); Flood, 62 g ai/ha): 0
- Plant response rating, Sedge, Umbrella [8, 11]: 0
- Plant response rating, Sedge, Umbrella [8, 12]: 20
- Plant response rating, Sedge, Umbrella ([8]; Flood, 31 g ai/ha): 0
- Plant response rating, Sedge, Umbrella ([8]; Flood, 62 g ai/ha): 0
- Morningglory plant response rating [9, 13]: 30
- Morningglory plant response rating [9, 14]: 30
- Plant response rating, Morningglory [9, 15]: 0
- Plant response rating, Morningglory [9, 16]: 0
- Corn plant response rating (corn (Zea mays); [13]): 10
- Corn plant response rating (corn (Zea mays); [14]): 30
- Plant response rating, Corn (corn (Zea mays); [15]): 0
- Plant response rating, Corn (corn (Zea mays); [16]): 0
- Barnyardgrass plant response rating [10, 13]: 0
- Barnyardgrass plant response rating [10, 14]: 10
- Plant response rating, Barnyardgrass [10, 15]: 0
- Plant response rating, Barnyardgrass [10, 16]: 0

Reference: patent US9302999B2, “Substituted triazoles as herbicides” (E. I. DU PONT DE NEMOURS AND COMPANY, priority 2012, dated 2016)
